Consider one molecule from US7541346B2, “Pancratistatin cyclic phosphate prodrugs and phenpanstatin cyclic phosphate prodrugs” (Arizona Board of Regents, a body corporate of the State of …, priority 2003, dated 2009).

Data set [1] has as its system BXPC-3. Description: Human cancer cell line inhibitory activity, Pancreas-a BXPC-3. The data set is classed as cell-based.
In data set [2] the test system is MCF-7. Description: Human cancer cell line inhibitory activity, Breast MCF-7. The data set is classed as cell-based.
The test system of data set [3] is SF268. As to the kind of experiment: Human cancer cell line inhibitory activity, CNS SF268. The format is cell-based.
Data set [4] relates to NCI-H460. Description: Human cancer cell line inhibitory activity, Lung-NSC NCI-H460. The format is cell-based.
Data set [5] has as its system KM20L2. As to the kind of experiment: Human cancer cell line inhibitory activity, Colon KM20L2. The format is cell-based.
The subject of data set [6] is DU-145. Description: Human cancer cell line inhibitory activity, Prostate DU-145. The data set is classed as cell-based.
The conditions of data set [7]: freeze dried solid. On the procedure:
Sodium pancratistatin 3,4-cyclic phosphate (5a, 0.0165 g, 0.04 mmol) was dissolved in water (1 ml) and eluted through a column containing Amberlite IR 120 (H+) resin.

Molecules are shown by their SMILES. In brackets after ≈: the same amount, converted by molar mass.

Turning to `O=C1N[C@H]2[C@H](OP(=O)(O)O)[C@H](O)[C@@H](O)[C@H](O)[C@@H]2c2cc3c(c(O)c21)OCO3` [Compound 4b, Pancratistatin 4-O-phosphoric Acid], the “GI50 Pancreas-a BXPC-3” value in data set [1] came out at 0.36 µg/mL (≈ 0.888 µM). Also, the “GI50 Breast MCF-7” value in data set [2] came out at 0.43 µg/mL (≈ 1.06 µM). Besides, the “GI50 CNS SF268” value in data set [3] came to 0.35 µg/mL (≈ 0.864 µM). In data set [4], the “GI50 Lung-NSC NCI-H460” value came out at 0.42 µg/mL (≈ 1.04 µM). Besides, the “GI50 Colon KM20L2” value in data set [5] is 0.33 µg/mL (≈ 0.814 µM). Further, in data set [6], the “GI50 Prostate DU-145” value was 0.20 µg/mL (≈ 0.494 µM). Further, in data set [7], the “stability of the material” value is “unstable and decomposed over several days”.
